# Assays:
# NSP10/14 complex [1] = target: T1, NSP10/14 complex (Severe acute respiratory syndrome coronavirus 2, UniProt P0DTD1); experiment: biochemical
# T1 construct: gene rep; full-length NSP14 and NSP10 (139 aa), mature chains of replicase polyprotein 1ab; N-terminal His-tags (pDEST527), E. coli Rosetta2; assembled in vitro, copurified on Mono S, near stoichiometric; with Non-structural protein 10
# NSP10/14 complex [2] = target: T1, NSP10/14 complex; type: binding
# NSP14 = target: T2, NSP14 (Severe acute respiratory syndrome coronavirus 2, UniProt P0DTD1); type: binding
# T2 construct: gene rep; full-length NSP14, mature chain of replicase polyprotein 1ab; N-terminal His-tag (pDEST527), E. coli Rosetta2
smiles,measurement,setting,value
Nc1ncnc2c1ncn2[C@@H]1O[C@H](CSCC[C@H](N)C(=O)O)[C@@H](O)[C@H]1O [S-adenosylhomocysteine],EC50,NSP10/14 complex [1],25 ± 9 µM
same,Tm at 400 μM SAH,NSP10/14 complex [2],48.2 ± 0.2 °C
same,Tm at 40 μM SAH (control Tm 43.1 ± 0.2 °C),NSP14,48.5 ± 0.17 °C

# Reference: paper PMC8685350, “Activation of the SARS-CoV-2 NSP14 3′–5′ exoribonuclease by NSP10 and response to antiviral inhibitors” (The Journal of Biological Chemistry, 2021)
